Measured values reported in patent US8741944B2, “Anti-infective agents against intracellular pathogens” (priority 2007, dated 2014).
Read-outs that look alike come from different tables or passages of the source.

Tests used:
[1] = test system: HT29 (Colon Cancer); test: NCI DTP tumor cell line screen (SRB), HT29
Protocol: (§1) For a typical screening experiment, cells are inoculated into 96 well microtiter plates in 100 μL at plating densities ranging from 5,000 to 40,000 cells/well depending on the doubling time of individual cell lines. After cell inoculation, the microtiter plates are incubated at 37° C., 5% CO2, 95% air and 100% relative humidity for 24 h prior to addition of experimental drugs.
(§2) After 24 h, two plates of each cell line are fixed in situ with TCA, to represent a measurement of the cell population for each cell line at the time of drug addition (Tz). Experimental drugs are solubilized in dimethyl sulfoxide at 400-fold the desired final maximum test concentration and stored frozen prior to use. At the time of drug addition, an aliquot of frozen concentrate is thawed and diluted to twice the desired final maximum test concentration with complete medium containing 50 μg/ml gentamicin. Additional four, 10-fold or ½ log serial dilutions are made to provide a total of five drug concentrations plus control. Aliquots of 100 μl of these different drug dilutions are added to the appropriate microtiter wells already containing 100 μl of medium, resulting in the required final drug concentrations.
(§3) Following drug addition, the plates are incubated for an additional 48 h at 37° C., 5% CO2, 95% air, and 100% relative humidity. For adherent cells, the assay is terminated by the addition of cold TCA. Cells are fixed in situ by the gentle addition of 50 μl of cold 50% (w/v) TCA (final concentration, 10% TCA) and incubated for 60 minutes at 4° C. The supernatant is discarded, and the plates are washed five times with tap water and air dried. Sulforhodamine B (SRB) solution (1001) at 0.4% (w/v) in 1% acetic acid is added to each well, and plates are incubated for 10 minutes at room temperature. After staining, unbound dye is removed by washing five times with 1% acetic acid and the plates are air dried. Bound stain is subsequently solubilized with 10 mM trizma base, and the absorbance is read on an automated plate reader at a wavelength of 515 nm. For suspension cells, the methodology is the same except that the assay is terminated by fixing settled cells at the bottom of the wells by gently adding 50 μl of 80% TCA (final concentration, 16% TCA). Using the seven absorbance measurements [time zero, (Tz), control growth, (C), and test growth in the presence of drug at the five concentration levels (Ti)], the percentage growth is calculated at each of the drug concentrations levels. Percentage growth inhibition is calculated as: [(Ti−Tz)/(C−Tz)]×100 for concentrations for which Ti>/=Tz [(Ti−Tz)/Tz]×100 for concentrations for which Ti<Tz
(§4) Three dose response parameters are calculated for each experimental agent. […] The drug concentration resulting in total growth inhibition (TGI) is calculated from Ti=Tz. […] Values are calculated for each of these three parameters if the level of activity is reached; however, if the effect is not reached or is exceeded, the value for that parameter is expressed as greater or less than the maximum or minimum concentration tested.

[2] = test system: MCF7 (Breast Cancer); test: NCI DTP tumor cell line screen (SRB), MCF7
Protocol: as §1, §2, §3, §4

[3] = test system: PC-3 (Prostate Cancer); test: NCI DTP tumor cell line screen (SRB), PC-3
Protocol: as §1, §2, §3, §4

[4] = test system: SK-OV-3 (Ovarian Cancer); test: NCI DTP tumor cell line screen (SRB), SK-OV-3
Protocol: as §1, §2, §3, §4

[5] = test system: DU-145 (Prostate Cancer); test: NCI DTP tumor cell line screen (SRB), DU-145
Protocol: as §1, §2, §3, §4

[6] = test system: M14 (Melanoma); test: NCI DTP tumor cell line screen (SRB), M14
Protocol: as §1, §2, §3, §4

[7] = test system: A498 (Renal Cancer); test: NCI DTP tumor cell line screen (SRB), A498
Protocol: as §1, §2, §3, §4

[8] = test system: OVCAR-5 (Ovarian Cancer); test: NCI DTP tumor cell line screen (SRB), OVCAR-5
Protocol: as §1, §2, §3, §4

[9] = test system: HOP-92 (Non-Small Cell Lung Cancer); test: NCI DTP tumor cell line screen (SRB), HOP-92
Protocol: as §1, §2, §3, §4

[10] = test system: RXF 393 (Renal Cancer); test: NCI DTP tumor cell line screen (SRB), RXF 393
Protocol: as §1, §2, §3, §4

[11] = test system: NCI-H23 (Non-Small Cell Lung Cancer)
Protocol: as §1, §2, §3, §4

[12] = test system: ACHN (Renal Cancer); test: NCI DTP tumor cell line screen (SRB), ACHN
Protocol: as §1, §2, §3, §4

[13] = test system: UACC-62 (Melanoma); test: NCI DTP tumor cell line screen (SRB), UACC-62
Protocol: as §1, §2, §3, §4

[14] = test system: SW-620 (Colon Cancer); test: NCI DTP tumor cell line screen (SRB), SW-620
Protocol: as §1, §2, §3, §4

[15] = test system: SK-MEL-5 (Melanoma); test: NCI DTP tumor cell line screen (SRB), SK-MEL-5
Protocol: as §1, §2, §3, §4

[16] = test system: HS 578T (Breast Cancer); test: NCI DTP tumor cell line screen (SRB), HS 578T
Protocol: as §1, §2, §3, §4

4-[5-(2-Phenanthrenyl)-3-(trifluoromethyl)-1H-pyrazol-1-yl]-phenyl -guanidine [Compound 71]
GI50 [1]: 1500 nM | TGI [1]: 2.83E−06 | Percent Growth ([1]; Log10 Concentration −4.0): −99% | Percent Growth ([1]; Log10 Concentration −5.0): −100% | Percent Growth ([1]; Log10 Concentration −6.0): 82% | Percent Growth ([1]; Log10 Concentration −7.0): 91% | Percent Growth ([1]; Log10 Concentration −8.0): 95% | GI50 [2]: 1820 nM | TGI [2]: 3.44E−06 | Percent Growth ([2]; Log10 Concentration −4.0): −49% | Percent Growth ([2]; Log10 Concentration −6.0): 97% | Percent Growth ([2]; Log10 Concentration −7.0): 82% | GI50 [3]: 1380 nM | TGI [3]: 2.67E−06 | Percent Growth ([3]; Log10 Concentration −5.0): −100% | Percent Growth ([3]; Log10 Concentration −6.0): 75% | Percent Growth ([3]; Log10 Concentration −7.0): 73% | Percent Growth ([3]; Log10 Concentration −8.0): 75% | GI50 [4]: 1430 nM | TGI [4]: 2.94E−06 | Percent Growth ([4]; Log10 Concentration −4.0): −30% | Percent Growth ([4]; Log10 Concentration −5.0): −85% | Percent Growth ([4]; Log10 Concentration −6.0): 75% | Percent Growth ([4]; Log10 Concentration −7.0): 91% | GI50 [5]: 1550 nM | TGI [5]: 2.89E−06 | Percent Growth ([5]; Log10 Concentration −4.0): −100% | Percent Growth ([5]; Log10 Concentration −5.0): −100% | Percent Growth ([5]; Log10 Concentration −6.0): 85% | Percent Growth ([5]; Log10 Concentration −8.0): 72% | GI50 [6]: 1480 nM | TGI [6]: 2.80E−06 | Percent Growth ([6]; Log10 Concentration −4.0): −33% | Percent Growth ([6]; Log10 Concentration −5.0): −100% | Percent Growth ([6]; Log10 Concentration −7.0): 82% | GI50 [7]: 16500 nM | TGI [7]: 4.35E−05 | Percent Growth ([7]; Log10 Concentration −4.0): −43% | Percent Growth ([7]; Log10 Concentration −5.0): 76% | Percent Growth ([7]; Log10 Concentration −6.0): 73% | Percent Growth ([7]; Log10 Concentration −7.0): 91% | Percent Growth ([7]; Log10 Concentration −8.0): 116% | GI50 [8]: 1730 nM | TGI [8]: 3.11E−06 | Percent Growth ([8]; Log10 Concentration −4.0): −8% | Percent Growth ([8]; Log10 Concentration −5.0): −100% | Percent Growth ([8]; Log10 Concentration −6.0): 97% | Percent Growth ([8]; Log10 Concentration −8.0): 95% | GI50 [9]: 1010 nM | TGI [9]: 2.26E−06 | Percent Growth ([9]; Log10 Concentration −4.0): −28% | Percent Growth ([9]; Log10 Concentration −5.0): −92% | Percent Growth ([9]; Log10 Concentration −6.0): 50% | Percent Growth ([9]; Log10 Concentration −7.0): 82% | TGI ([10]; RXF 383): 2.91E−06 | Percent Growth ([10]; RXF 383, Log10 Concentration −4.0): −4% | Percent Growth ([10]; RXF 383, Log10 Concentration −6.0): 53% | Percent Growth ([10]; RXF 383, Log10 Concentration −7.0): 53% | Percent Growth ([10]; RXF 383, Log10 Concentration −8.0): 42% | GI50 [11]: 1790 nM | TGI [11]: 3.18E−06 | Percent Growth ([11]; Log10 Concentration −4.0): −67% | Percent Growth ([11]; Log10 Concentration −5.0): −100% | Percent Growth ([11]; Log10 Concentration −6.0): 101% | GI50 [12]: 1670 nM | TGI [12]: 3.15E−06 | Percent Growth ([12]; Log10 Concentration −4.0): −22% | Percent Growth ([12]; Log10 Concentration −5.0): −91% | Percent Growth ([12]; Log10 Concentration −6.0): 90% | Percent Growth ([12]; Log10 Concentration −8.0): 80% | GI50 [13]: 1440 nM | TGI [13]: 2.74E−06 | Percent Growth ([13]; Log10 Concentration −4.0): −60% | Percent Growth ([13]; Log10 Concentration −5.0): −100% | Percent Growth ([13]; Log10 Concentration −6.0): 78% | Percent Growth ([13]; Log10 Concentration −7.0): 83% | GI50 [14]: 1750 nM | TGI [14]: 3.13E−06 | Percent Growth ([14]; Log10 Concentration −4.0): −92% | Percent Growth ([14]; Log10 Concentration −5.0): −100% | Percent Growth ([14]; Log10 Concentration −6.0): 98% | Percent Growth ([14]; Log10 Concentration −7.0): 91% | Percent Growth ([14]; Log10 Concentration −8.0): 83% | GI50 [15]: 2220 nM | TGI [15]: 4.07E−06 | Percent Growth ([15]; Log10 Concentration −4.0): −34% | Percent Growth ([15]; Log10 Concentration −6.0): 116% | Percent Growth ([15]; Log10 Concentration −7.0): 111% | Percent Growth ([15]; Log10 Concentration −8.0): 97% | GI50 [16]: 1860 nM | TGI [16]: 3.78E−06 | Percent Growth ([16]; Log10 Concentration −4.0): −38% | Percent Growth ([16]; Log10 Concentration −5.0): −69% | Percent Growth ([16]; Log10 Concentration −6.0): 94% | Percent Growth ([16]; Log10 Concentration −7.0): 100%
